Experimental data: US9114149B2, “[CU(thp)4]n[X]-n compounds for the treatment of a broad range of human solid tumors, including refractory tumors” (Universita Degli Studi Di Padova, priority 2011, dated 2015)
Marks after values point to notes of the source that are not given here.

Legend:
[1] = system: CDDP resistant and OXP resistant human cancer cells
[2] = system: human cancer cell lines derived from solid tumors; test: MTT cytotoxicity, whole panel of human solid tumor cell lines; type: cell-based; conditions: Table 1 panel, maximum
Source text: The in vitro antitumor activity of CP had been deeply evaluated in several human cancer cell lines by in vitro cytotoxicity assays. CP cytotoxicity has been detected in a large panel of human cell lines derived from a wide variety of solid tumors, including refractory tumors. In Table 1, the cytotoxicity parameters IC50 (that is the median growth inhibitory concentrations calculated from dose-survival curves via MTT test) are tabulated.
Cell lines representative of lung (H157, U1810, U1285, Calu-1), pancreas (MIA PaCa-2, BxPC-3, AsPC-1, Capan-1), liver (Huh-7, Hep 3B, SK-Hep-1), oesophagus (OE33, OE21), oesophagus/gastric cardia (OE19), stomach (BGC-823, AGS), colon (HCT-116, T84, COLO 205), breast (MDA-MB-231, SK-BR-3), cervix (CaSki, C-33 A) ovarian (A2780, SK-OV-3, IGROV1), prostate (LnCaP, PC-3) cancers along with melanoma (MEWO, G361, C-32), neuroblastoma (SH-SY5Y, SK-N-AS, IMR-32) and osteosarcoma (U-2 OS, MG-63) have been treated with increasing concentration of CP for 72 hrs.
In colon, liver, brain, ovary and prostate cell line panels IC50 values in the submicromolar range have been obtained.

[3] = system: BALB/c mice; test: Acute toxicity tests in healthy BALB/c mice; type: in vivo; conditions: for LD50: BALB/c mice, observed 24 hrs
Protocol: The acute toxicity was assessed by treating BALB/c or C57BL mice with a single intraperitoneal (i.p.) or endovenous (e.v.) administration of different amounts, i.e. 3.125, 6.25, 12.5, 25, 50, 100 and 200 mg/kg of tested compounds.
To preliminarily establish the toxicity profile of CP, acute and repeat-dose toxicity studies were performed in BALB/c mice and in C57BL mice.

[4] = system: human colon adenocarcinoma cells resistant (HCT-116 OXP) to OXP

Structure (SMILES): F[P-](F)(F)(F)(F)F.OC[P+](CO)(CO)[Cu-3]([P+](CO)(CO)CO)([P+](CO)(CO)CO)[P+](CO)(CO)CO [CP, [Cu(thp)4][PF6]]
- IC50 fold lower than the reference metallodrugs ([1]; Table 2 cell lines, maximum): up to 15 fold
- antitumor activity levels on sensitive versus resistant cell lines ([1]; sensitive and resistant cell line pairs): very similar
- fold more cytotoxic than CDDP [2]: up to 50 fold
- fold more cytotoxic than OXP [2]: ≤ 30 fold
- LD50 relative to that recorded with CDDP ([3]; BALB/c and C57BL mice (Table 5)): about one order of magnitude higher
- LD50 ([3]; single e.v. administration): 135^b mg/kg
- LD50 ([3]; single i.p. administration): 150^a mg/kg
- IC50 ([4]; HCT-116 OXP (OXP resistant), MTT test, 72 h, probit analysis): 1900 ± 700 nM
- R.F. (Resistant factor) ([4]; IC50 resistant/parent line: HCT-116 OXP / HCT-116): 1.4
